Assay [1] relates to H-69 cells. The assay can be described thus: MTT assay, H-69 cells. The assay is classed as cell-based. Conditions: Homo sapiens, NCI-H69, read-out: IC50 Values (Mean ± SD; n = 3). How it is done:
(§1) The MTT reduction assay was performed with non-cancer (Vero), human cervical cancer (HeLa), human colon cancer (HCT116), human breast adenocarcinoma cancer (MCF-7), and cholangiocarcinoma (H-69 […], KKU-100 and KKU-M213B) cell lines according to the previously described method. Briefly, cells were seeded in 96-well plates. The next day, cells were exposed to the selected compounds at various concentrations and incubated for 24, 48 and 72 h. After incubation, the culture medium was exchanged with 110 µL of MTT (0.5 mg/mL in PBS medium) and further incubated for 2 h. The amount of MTT formazan product was determined after dissolving in DMSO by measuring its absorbance with a microplate reader (Bio-Rad Laboratories, Hercules, CA, USA) at a test wavelength of 550 nm and a reference wavelength of 655 nm. The cell viability was expressed as a percentage of the viable cells of control culture conditions, and the IC50 values of each group were calculated.
(Tetrazolium assays rely on reduction of a dye to a coloured formazan, in cell work by metabolically active cells.)

In assay [2] the test system is human colon cancer (HCT116) cells. The experiment in a line: MTT assay, HCT116 cells. The assay is classed as cell-based. Conditions: Homo sapiens, HCT-116, read-out: IC50 Values (Mean ± SD; n = 3). How it is done:
as §1

Assay [3] has as its system Vero cells. The assay can be described thus: MTT assay, non-cancer Vero cells. In kind it is cell-based. Conditions: Chlorocebus sabaeus, read-out: IC50 Values (Mean ± SD; n = 3). How it is done:
as §1

Assay [4] has as its system HDAC enzymes (HeLa nuclear extract, mixed-HDAC isoforms). The experiment in a line: Fluor-de-Lys HDAC activity assay kit, HeLa nuclear extract as source of HDAC enzymes. The assay is classed as biochemical, human. Particulars: compounds at 100 µM. How it is done: The in vitro HDAC inhibitions of the obtained compounds were carried out with the assay kit containing mixed-HDAC isoforms. […] Therefore, the results were not fully related. However, compounds with good binding affinities should have the potential to be specific HDAC inhibitors for each isoform.
The semi-synthetic derivatives were evaluated for their ability to inhibit HDAC enzymes. Inhibition of HDAC activity in vitro was assessed using the Fluor-de-Lys HDAC activity assay kit (Biomol, Enzo Life Sciences International, Inc., Farmingdale, NY, USA). The HeLa nuclear extract provided with the kit was used as a source of HDAC enzymes for the in vitro study. TSA was used as the positive control. The HeLa nuclear extract, substrate, buffer and inhibitors were incubated. Deacetylation of the substrate was performed next by adding a developer to generate a fluorophore. The spectra Max Gemini XPS microplate spectrofluorometer (Molecular Devices, San Jose, CA, USA) was used to measure fluorescence signal with excitation at 360 nm and emission at 460 nm. A decrease in fluorescence signal indicated an inhibition of HDAC activity. Trichostatin A (TSA) was used as a positive control. All experiments were carried out in triplicate.

Assay [5] has as its system cholangiocarcinoma KKU-M213B cells. The experiment in a line: MTT assay, KKU-M213B cells. In kind it is cell-based, human. Conditions: Homo sapiens, read-out: IC50 Values (Mean ± SD; n = 3). As for the experimental part: as §1
In assay [6] the test system is cholangiocarcinoma KKU-100 cells. The experiment in a line: MTT assay, KKU-100 cells. Particulars: Homo sapiens, KKU100, read-out: IC50 Values (Mean ± SD; n = 3). The assay is classed as cell-based, human. How it is done: as §1
In assay [7] the test system is human cervical cancer (HeLa) cells. The experiment in a line: MTT assay, HeLa cells. The assay is classed as cell-based. Conditions: for IC50: Homo sapiens, read-out: IC50 Values (Mean ± SD; n = 3), HeLa cells. As for the experimental part:
as §1

The test system of assay [8] is human breast adenocarcinoma cancer (MCF-7) cells. The assay can be described thus: MTT assay, MCF-7 cells. The assay is classed as cell-based. Particulars: Homo sapiens, MCF7, read-out: IC50 Values (Mean ± SD; n = 3). As for the experimental part: as §1
The target in assay [9] is histone deacetylase. Particulars: Figure 1; read-out: IC50 (known histone deacetylase inhibitors); cited from earlier work.

Here are results for five compounds from article PMC9144829, “Histone Deacetylase Inhibitory Activity and Antiproliferative Potential of New [6]-Shogaol Derivatives” (Molecules, 2022).

Like-named read-outs stand apart in the source and are kept apart here.

What is called IC50 is the midpoint of a concentration-inhibition curve. Turning to `CCCCC/C=C/C(CCc1ccc(O)c(OC)c1)=N\Nc1nc2ccccc2s1` [Compound 4d, 4-((3Z,4E)-3-(2-(Benzo[d]thiazol-2-yl)hydrazono)dec-4-en-1-yl)-2-methoxyphenol], the IC50 in [1] (24 h) is 51.4 ± 1.51 µM; in assay [1] (48 h) it was 41.4 ± 0.61 µM; in assay [1] (72 h), 29.4 ± 0.89 µM; in assay [2] (24 h) it was 40.1 ± 1.47 µM; in assay [2] (48 h), 28.3 ± 0.79 µM; in [2] (72 h) it was 26.63 ± 0.15 µM. Besides, the IC50 in assay [3] (24 h) was determined as 170 ± 6.98 µM; in [3] (48 h), 70 ± 1.27 µM; in assay [3] (72 h), 60.1 ± 1.69 µM; in [5] (24 h), 39.84 ± 0.29 µM; in assay [5] (48 h) it was 20.6 ± 0.18 µM; in assay [5] (72 h), 18.2 ± 0.75 µM. In addition, the IC50 in [6] (24 h) is 41.6 ± 1.24 µM; in [6] (48 h), 31.5 ± 0.8 µM; in [6] (72 h), 25.75 ± 0.2 µM; in assay [7] (24 h) it was 51.6 ± 1.92 µM; in assay [7] (48 h) it was 37.2 ± 1.33 µM; in [7] (72 h), 33.7 ± 0.76 µM. Moreover, the IC50 was 104 ± 3.17 µM in assay [8] (24 h), 57.8 ± 2.37 µM in assay [8] (48 h) and 25.5 ± 1.15 µM in assay [8] (72 h). Also, in assay [4], the “%HDAC Inhibition” value turned out to be 80%.

Take `CCCCCC1CC(CCc2ccc(O)c(OC)c2)=NN1c1ccc([N+](=O)[O-])cc1` (stereo not drawn) [Compound 5j, 2-methoxy-4-(2-(1-(4-nitrophenyl)-5-pentyl-4,5-dihydro-1H-pyrazol-3-yl)ethyl)phe nol]: the IC50 was determined as 44.1 ± 0.89 µM in assay [1] (24 h); 34.6 ± 0.41 µM in assay [1] (48 h); 26.4 ± 0.43 µM in assay [1] (72 h); 42.7 ± 2.23 µM in assay [2] (24 h); 10.2 ± 0.43 µM in assay [2] (48 h); 9.65 ± 0.17 µM in assay [2] (72 h). For the same compound, the IC50 in assay [3] (24 h) amounted to 41.6 ± 2.99 µM; in assay [3] (48 h) it was 32.2 ± 1.31 µM; in assay [3] (72 h), 26.1 ± 0.47 µM; in [5] (24 h), 23.9 ± 0.85 µM; in assay [5] (48 h), 19.3 ± 0.9 µM; in assay [5] (72 h), 13.8 ± 0.16 µM. The IC50 was determined as 27.2 ± 0.59 µM in assay [6] (24 h); 22.4 ± 0.65 µM in [6] (48 h); 17.45 ± 0.14 µM in assay [6] (72 h); 26.8 ± 0.62 µM in [7] (24 h); 11.6 ± 0.6 µM in [7] (48 h); 8.09 ± 0.03 µM in assay [7] (72 h). Moreover, the IC50 in assay [8] (24 h) was 27.9 ± 0.86 µM; in assay [8] (48 h) it was 13.8 ± 0.56 µM; in assay [8] (72 h), 11.6 ± 0.44 µM. The “%HDAC Inhibition” value in assay [4] is 85%.

Consider `CCCCCC1CC(CCc2ccc(O)c(OC)c2)=NN1c1ccc(C(=O)O)cc1` (stereo not drawn) [Compound 5k, 4-(3-(4-hydroxy-3-methoxyphenethyl)-5-pentyl-4,5-dihydro-1H-pyrazol-1-yl)benzo ic acid], for which the IC50 in assay [1] (24 h) amounted to 68.7 ± 1.15 µM; in [1] (48 h), 52.7 ± 1.73 µM; in [1] (72 h), 47.6 ± 0.73 µM; in assay [2] (24 h), 94.4 ± 2.7 µM; in assay [2] (48 h), 39.2 ± 1.06 µM; in [2] (72 h), 34.5 ± 0.66 µM. For the same compound, the IC50 was 143 ± 2.15 µM in [3] (24 h); 128 ± 1.73 µM in [3] (48 h); 116.7 ± 1.13 µM in assay [3] (72 h); 63.2 ± 2.52 µM in assay [5] (24 h); 35.7 ± 1.4 µM in [5] (48 h); 29.1 ± 1.17 µM in assay [5] (72 h). Besides, the IC50 in assay [6] (24 h) came out at 68.1 ± 1.98 µM; in [6] (48 h), 38.9 ± 0.65 µM; in [6] (72 h), 26.99 ± 0.08 µM; in [7] (24 h) it was 83.8 ± 1.83 µM; in [7] (48 h), 56.8 ± 1.24 µM; in assay [7] (72 h), 23.1 ± 0.76 µM. For the same compound, the IC50 in [8] (24 h) is 56.6 ± 3.21 µM; in assay [8] (48 h) it was 50.5 ± 1.64 µM; in [8] (72 h) it was 31.8 ± 0.88 µM. Further, the “%HDAC Inhibition” value in [4] turned out to be 83%. Also, the “selectivity towards HeLa cells than non-cancer cells” value in assay [7] (HeLa versus non-cancer cells) is recorded as “about 5 fold”.

As to `COc1cc(CNC(=O)CCCCC(O)CC(C)C)ccc1O` (stereo not drawn) [Hydroxycapsaicin (2), hydroxycapsaicin], the IC50 in [9] is 72 µM.

Turning to `CCCCC[C@H](O)CC(=O)CCc1ccc(O)c(OC)c1` [[6]-Gingerol (3), [6]-gingerol], the 50% inhibitory concentration (IC50) in assay [9] is 61 µM.
